Source: the supplement of paper PMC10307832

Key:
Assay in all cases: relative viability (nuclei count vs DMSO), 5 days (fraction); higher = more cells survive
H3255 = tested on: H3255
Outline: (§1)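 Nuclei were stained with Hoechst during a one-step fixation (final 0.05% Triton X-100, 1% formaldehyde, 1 ug/ml Hoechst) carried out 5 days after dosing, then counted on 4× images. The cells, lung cancer lines in 1536-well plates, had been dosed by pin tool the day after seeding with one drug alone or a fixed anchor-drug dose plus five library-drug doses (not always all listed) in √10 steps. Relative viability is the nuclei count in treated wells divided by that in vehicle wells, and each value is the median of duplicate plates.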

NCI-H1975 = tested on: NCI-H1975
Outline: as §1

NCI-H2228 = tested on: NCI-H2228
Outline: as §1

HCC-366 = tested on: HCC-366
Outline: as §1

LCLC-103H = tested on: LCLC-103H
Outline: as §1

NCI-H661 = tested on: NCI-H661
Outline: as §1

PC-14 = tested on: PC-14
Outline: as §1

LC-2-ad = tested on: LC-2-ad
Outline: as §1

NCI-H23 = tested on: NCI-H23
Outline: as §1

UMC-11 = tested on: UMC-11
Outline: as §1

NCI-H2087 = tested on: NCI-H2087
Outline: as §1

COR-L23 = tested on: COR-L23
Outline: as §1

HCC-15 = tested on: HCC-15
Outline: as §1

NCI-H2085 = tested on: NCI-H2085
Outline: as §1

NCI-H1666 = tested on: NCI-H1666
Outline: as §1

NCI-H1437 = tested on: NCI-H1437
Outline: as §1

HCC-827 = tested on: HCC-827
Outline: as §1

ABC-1 = tested on: ABC-1
Outline: as §1

NCI-H2009 = tested on: NCI-H2009
Outline: as §1

LXF-289 = tested on: LXF-289
Outline: as §1

PC-3 [JPC-3] = tested on: PC-3 [JPC-3]
Outline: as §1

SK-MES-1 = tested on: SK-MES-1
Outline: as §1

Compound: CN1CCN(CCOc2cc(OC3CCOCC3)c3c(Nc4c(Cl)ccc5c4OCO5)ncnc3c2)CC1 [Saracatinib] + C[C@]1(O)C[C@@H](c2nc(-c3ccc4ccc(-c5ccccc5)nc4c3)c3c(N)nccn32)C1 [Linsitinib] (partner 1 µM)
- relative viability (H3255; first compound 0.02 µM): 0.994
- relative viability (H3255; first compound 0.2 µM): 0.986
- relative viability (H3255; first compound 0.6325 µM): 0.647
- relative viability (H3255; first compound 2 µM): 0.233
- relative viability (NCI-H1975; first compound 0.02 µM): 0.953
- relative viability (NCI-H1975; first compound 0.6325 µM): 0.95
- relative viability (NCI-H1975; first compound 2 µM): 0.478
- relative viability (NCI-H2228; first compound 0.02 µM): 0.806
- relative viability (NCI-H2228; first compound 0.2 µM): 0.704
- relative viability (NCI-H2228; first compound 0.6325 µM): 0.574
- relative viability (NCI-H2228; first compound 2 µM): 0.392
- relative viability (HCC-366; first compound 0.02 µM): 0.607
- relative viability (HCC-366; first compound 0.6325 µM): 0.283
- relative viability (HCC-366; first compound 2 µM): 0.13
- relative viability (LCLC-103H; first compound 0.02 µM): 1.18
- relative viability (LCLC-103H; first compound 0.2 µM): 0.873
- relative viability (LCLC-103H; first compound 0.6325 µM): 1.04
- relative viability (LCLC-103H; first compound 2 µM): 1.04
- relative viability (NCI-H661; first compound 0.02 µM): 0.525
- relative viability (NCI-H661; first compound 0.2 µM): 0.598
- relative viability (NCI-H661; first compound 0.6325 µM): 0.571
- relative viability (NCI-H661; first compound 2 µM): 0.376
- relative viability (PC-14; first compound 0.02 µM): 0.952
- relative viability (PC-14; first compound 0.2 µM): 0.708
- relative viability (PC-14; first compound 0.6325 µM): 0.304
- relative viability (PC-14; first compound 2 µM): 0.166
- relative viability (LC-2-ad; first compound 0.02 µM): 0.971
- relative viability (LC-2-ad; first compound 0.6325 µM): 0.689
- relative viability (LC-2-ad; first compound 2 µM): 0.541
- relative viability (NCI-H23; first compound 0.02 µM): 0.58
- relative viability (NCI-H23; first compound 0.6325 µM): 0.558
- relative viability (NCI-H23; first compound 2 µM): 0.466
- relative viability (UMC-11; first compound 0.02 µM): 1.09
- relative viability (UMC-11; first compound 0.6325 µM): 0.956
- relative viability (UMC-11; first compound 2 µM): 0.8
- relative viability (NCI-H2087; first compound 0.02 µM): 1.11
- relative viability (NCI-H2087; first compound 0.2 µM): 0.947
- relative viability (NCI-H2087; first compound 0.6325 µM): 1.2
- relative viability (NCI-H2087; first compound 2 µM): 1.12
- relative viability (COR-L23; first compound 0.02 µM): 0.86
- relative viability (COR-L23; first compound 0.2 µM): 0.558
- relative viability (COR-L23; first compound 0.6325 µM): 0.789
- relative viability (COR-L23; first compound 2 µM): 0.584
- relative viability (HCC-15; first compound 0.02 µM): 0.911
- relative viability (HCC-15; first compound 0.2 µM): 0.84
- relative viability (HCC-15; first compound 0.6325 µM): 0.86
- relative viability (HCC-15; first compound 2 µM): 0.726
- relative viability (NCI-H2085; first compound 0.02 µM): 0.952
- relative viability (NCI-H2085; first compound 0.2 µM): 0.901
- relative viability (NCI-H2085; first compound 0.6325 µM): 0.881
- relative viability (NCI-H2085; first compound 2 µM): 0.898
- relative viability (NCI-H1666; first compound 0.02 µM): 0.81
- relative viability (NCI-H1666; first compound 0.2 µM): 0.909
- relative viability (NCI-H1666; first compound 0.6325 µM): 0.815
- relative viability (NCI-H1666; first compound 2 µM): 0.844
- relative viability (NCI-H1437; first compound 0.02 µM): 1.04
- relative viability (NCI-H1437; first compound 0.2 µM): 0.985
- relative viability (NCI-H1437; first compound 0.6325 µM): 0.981
- relative viability (NCI-H1437; first compound 2 µM): 1.09
- relative viability (HCC-827; first compound 0.02 µM): 0.981
- relative viability (HCC-827; first compound 0.2 µM): 0.739
- relative viability (HCC-827; first compound 0.6325 µM): 0.338
- relative viability (HCC-827; first compound 2 µM): 0.158
- relative viability (ABC-1; first compound 0.02 µM): 0.61
- relative viability (ABC-1; first compound 0.2 µM): 0.902
- relative viability (ABC-1; first compound 0.6325 µM): 0.677
- relative viability (ABC-1; first compound 2 µM): 0.753
- relative viability (NCI-H2009; first compound 0.02 µM): 1.19
- relative viability (NCI-H2009; first compound 0.2 µM): 1.04
- relative viability (NCI-H2009; first compound 0.6325 µM): 1.15
- relative viability (NCI-H2009; first compound 2 µM): 1.04
- relative viability (LXF-289; first compound 0.02 µM): 0.979
- relative viability (LXF-289; first compound 0.2 µM): 0.92
- relative viability (LXF-289; first compound 0.6325 µM): 0.968
- relative viability (LXF-289; first compound 2 µM): 0.963
- relative viability (PC-3 [JPC-3]; first compound 0.02 µM): 0.961
- relative viability (PC-3 [JPC-3]; first compound 0.2 µM): 0.891
- relative viability (PC-3 [JPC-3]; first compound 0.6325 µM): 0.875
- relative viability (PC-3 [JPC-3]; first compound 2 µM): 0.583
- relative viability (SK-MES-1; first compound 0.02 µM): 0.934
- relative viability (SK-MES-1; first compound 0.2 µM): 0.903
- relative viability (SK-MES-1; first compound 0.6325 µM): 0.87
- relative viability (SK-MES-1; first compound 2 µM): 0.471
